Numbers after ± are expanded uncertainties.
Key:
[1] = Molar enthalpy of transition or fusion; conditions: Crystal; DSC
[2] = Crystal; DTA

Structure (SMILES): Nc1ccccc1O [2-hydroxybenzenamine]
- Molar enthalpy of transition or fusion [1]: 6.39 ± 1.91 kcal/mol
- Normal melting temperature [2]: 175.57 ± 0.93 °C

Structure (SMILES): C[C@]12CCC(=O)C=C1CC[C@@H]1[C@@H]2CC[C@@]2(C)[C@H]1CC[C@]2(C)O [17-methyltestosterone]
- Molar enthalpy of transition or fusion [1]: 5.98 ± 1.79 kcal/mol
- Normal melting temperature [2]: 164.19 ± 0.71 °C

— the NIST ThermoML archive (doi:10.1016/j.jct.2011.02.003)
